# Results as given in patent US20160298165A1 (priority 2013, published 2016).
# Tests used:
# [1] = tested on: M. tuberculosis mc26230 (H37Rv ΔRD1 ΔpanCD); type: cell-based; conditions: anaerobic chamber; 4 mM VC
# M. tuberculosis [2] = type: cell-based, Mycobacterium tuberculosis
# M. tuberculosis [3] = type: cell-based, Mycobacterium tuberculosis; remark: listed apart in the source
# [4] = tested on: M. tuberculosis H37Rv ΔRD1 ΔpanCD; type: cell-based; conditions: cysteine 4 mM, 24 h
# [5] = tested on: M. tuberculosis H37Rv ΔRD1 ΔpanCD; type: cell-based; conditions: cysteine 4 mM, 24 h; remark: listed apart in the source
# M. tuberculosis H37Rv = type: cell-based, Mycobacterium tuberculosis
# M. tuberculosis [6] = type: cell-based, Mycobacterium tuberculosis; remark: listed apart in the source
# [7] = tested on: M. tuberculosis H37Rv ΔRD1 ΔpanCD; type: cell-based; conditions: treated for 3 days
compound,measurement,setting,value
"O=C1O[C@H]([C@@H](O)CO)C(O)=C1O [VC, Vitamin C]",effect on M. tuberculosis viability,[1],no effect
same,increase in total ROS,M. tuberculosis [2],Up to threefold
same,total ROS concentration relative to the untreated sample,M. tuberculosis [2],did not substantially alter
same,cells with DNA breaks relative to untreated culture or culture treated with VE,M. tuberculosis [3],tenfold higher
same,percentage of cells with DNA breaks,M. tuberculosis [3],17-25%
N[C@@H](CS)C(=O)O [cysteine],cystine concentration vs untreated sample,[4],100 times
same,levels of free thiols,[5],lower
same,decrease in CFUs,M. tuberculosis H37Rv,6 log
same,effect of cysteine on killing of M. tuberculosis by ETH,M. tuberculosis H37Rv,did not increase the killing
same,growth of M. tuberculosis with cysteine alone,M. tuberculosis H37Rv,not affected
"CC[C@@H](CO)NCCN[C@@H](CC)CO [EMB, Ethambutol, reference compound]",decrease in CFU,M. tuberculosis H37Rv,very slow decrease
Antimycin,cidal activity,M. tuberculosis [6],no cidal activity
"Cc1c(C)c2c(c(C)c1O)CC[C@@](C)(CCC[C@H](C)CCC[C@H](C)CCCC(C)C)O2 [VE, vitamin E, reference compound]",ROS level vs untreated samples,M. tuberculosis [2],lowered ROS level
OC(CS)C(O)CS (stereo not drawn) [Dithio- threitol],sterilization of cultures when combined with INH,M. tuberculosis H37Rv,sterilized
"Cc1ccc2ccc3ccc(C)nc3c2n1 [neocuproine, reference compound]",decrease in CFUs,M. tuberculosis H37Rv,5 log
same,growth of M. tuberculosis with neocuproine alone,M. tuberculosis H37Rv,no impact on the growth
"NNC(=O)c1ccncc1 [INH, Isoniazid]",intracellular levels of ferrous ions vs untreated sample,[7],very high
same,decrease in CFUs,M. tuberculosis H37Rv,3-4 log
